Assay results taken from US8748625B2, “Crystalline forms of 3-[5-(2-fluorophenyl)-[1,2,4]oxadiazol-3-yl]-benzoic acid” (PTC Therapeutics, Inc., priority 2006, dated 2014).
“Also recorded” adds a separate entry of the source.

Columns and labels:
Type in all cases: physicochemical
[1] = Physical stability on milling / micronization; conditions: for physical stability when milled: milled at ambient and at sub-ambient temperatures
[2] = Physical stability on slurrying in solvents
[3] = Dynamic vapor sorption (DVS) hygroscopicity; conditions: for hygroscopicity: DVS isotherm
Experimental: Form A of 3-[5-(2-fluorophenyl)-[1,2,4]oxadiazol-3-yl]-benzoic acid was evaluated for hygroscopicity. Dynamic vapor sorption (DVS) analysis of moisture uptake and moisture release as a function of relative humidity (RH) were obtained upon cycling between 5% and 95% RH. […] Accordingly, in certain embodiments, Form A is non-hygroscopic.
Moisture sorption/desorption data were collected on a VTI SGA-100 Vapor Sorption Analyzer. Sorption and desorption data were collected over a range of 5% to 95% relative humidity (RH) at 10% RH intervals under a nitrogen purge. Samples were not dried prior to analysis. Equilibrium criteria used for analysis were less than 0.0100% weight change in 5 minutes, with a maximum equilibration time of 3 hours if the weight criterion was not met. Data were not corrected for the initial moisture content of the samples. NaCl and PVP were used as calibration standards.

[4] = Physical stability on storage at controlled relative humidity; conditions: stored 6 days
Experimental: 3-[5-(2-fluorophenyl)-[1,2,4]oxadiazol-3-yl]-benzoic acid (UNMEASURED QUANTITY; FORM B) was stressed in 75% relative humidity at 40° C. for six days.

[5] = Physical stability under compression

| SMILES | physical and chemical stability upon micronization ([1]; micronization (particle size reduction)) | physical stability when milled [1] | physical stability when slurried ([2]; in 1-BuOH for 4 days at ambient temperature) | physical stability when slurried ([2]; in chloroform for 2 days at 50° C.) | physical stability when slurried ([2]; in dichloromethane for 2 days at 50° C.) | hygroscopicity [3] | maximum moisture uptake (DVS) ([3]; cycling between 5% and 95% RH) | physical stability on storage ([4]; 50% RH at 60° C.) | physical stability on storage ([4]; 53% RH at 40° C.) | physical stability on storage ([4]; 75% RH at 40° C.) | physical stability on storage ([4]; 79% RH at 60° C.) | physical stability when slurried ([2]; 1 day at ambient temperature in a 1:1 mixture of THF and heptane) | physical stability when slurried ([2]; in a 1:1 mixture of dioxane and water) | physical stability when slurried ([2]; in methyl isobutyl ketone) | physical stability under compression ([5]; compression alone) | physical stability under compression ([5]; compression in the presence of a 1:1 mixture of t-BuOH and water) |
| --- | --- | --- | --- | --- | --- | --- | --- | --- | --- | --- | --- | --- | --- | --- | --- | --- |
| O=C(O)c1cccc(-c2noc(-c3ccccc3F)n2)c1 [Form A, 3-[5-(2-fluorophenyl)-[1,2,4]oxadiazol-3-yl]-benzoic acid] | physically and chemically stable | physically stable | physically stable | physically stable | physically stable | substantially non-hygroscopic | about 0.06 % of the total mass of the sample | physically stable | physically stable | physically stable | physically stable |  |  |  |  |  |
| O=C(O)c1cccc(-c2noc(-c3ccccc3F)n2)c1 [Form B, 3-[5-(2-fluorophenyl)-[1,2,4]oxadiazol-3-yl]-benzoic acid] |  | conversion from Form B to Form A |  |  |  | substantially non-hygroscopic |  | physically stable | physically stable | physically stable; also recorded: characterized by XRPD as Form B | partial conversion to Form A | physically stable | conversion of Form B to Form A | conversion of Form B to Form A | physically stable | physically stable |
